Experiments:
HLA-A2 = HLA-A2 (Homo sapiens, UniProt P04439, D140Y/D185E/D98H/E176V/E277Q/G131W/G231S/I119V/I121R/I166T/I218V/N151K/N90K/P208A/P217A/Q86G/Q94H/R138H/R169H); conditions: binding at pH 6.5 at 4° C. overnight, FIG. 10A/10B
Protocol: Binding was performed at pH 6.5 at 4° C. overnight.

ESK1 antibody = ESK1 antibody binding specificity to peptide-MHC assemblies for WT1 9mer peptides; conditions: FIG. 7
From the text: Because the array of peptides on the surface is spatially-ordered, the sequence of every peptide is immediately known. Each amino acid of the 9 amino acid peptide was substituted for each of the 20 possible amino acids to identify those positions within this peptide that are essential for forming a proper peptide-MHCI complex. […] The amino acids A, F, I, L, M, V, W and P are nonpolar amino acids. The amino acids G, S, Y, C, Q, T, N are polar amino acids. The amino acids R, K and H are basic amino acids. The amino acids D and E are acidic amino acids.

| Sequence | peptide-MHC assembly signal, negatively charged HEX-asp-3HEX linker versus standard 5HEX linker (HLA-A2) | ESK1 antibody binding specificity (relative fluorescence intensity) (ESK1 antibody) |
| --- | --- | --- |
| RLYDYFTRV | increase in the peptide-MHC assembly signal | – |
| RVPGVAPTL | – | cross-reactive target |
